# Measured values: BindingDB's records for doi:10.1021/jm00076a005 (Glaxo Group Research, 1993)
# Molecular target: T1, Gag-Pol polyprotein [588-1027]/[588-1147] (Human immunodeficiency virus 1, UniProt P04585)
# T1 construct: 588-1027; 588-1147
# Experiment: HIV-1 RT Assay
# Source text: The IC50 of reverse transcriptase is the concentration that inhibits 50% of recombinant HIV-1 RT RNA-directed DNA polymerase activity in vitro.
Compound,IC50,"IC50 (pH 8, 37 °C)"
"Cc1nc(CCCCCCC(=O)c2ccccc2)n2nc(-n3cncn3)ccc12 [7-[5-methyl-2-(1H-1,2,4-triazol-1-yl)imidazo[1,5-a]pyridazin-7-yl]-1-phenylheptan-1-one]",0.1 µM,–
"Cc1nc(CCCCCO)n2nc(Cl)ccc12 [5-{2-chloro-5-methylimidazo[1,5-a]pyridazin-7-yl}pentan-1-ol]",–,100 µM
"Cc1nc(CCCCCCC(=O)c2ccccc2)n2nc(-n3cncc3C)ccc12 [7-[5-methyl-2-(5-methyl-1H-imidazol-1-yl)imidazo[1,5-a]pyridazin-7-yl]-1-phenylheptan-1-one]",0.1 µM,–
